Where two headings read alike, the source gives them in different places.
Experiments:
[1] = system: Raw 264.7 mouse macrophages; assay: Cell viability of LPS-treated Raw 264.7 macrophages; format: cell-based
Method: (§1) Raw 264.7 mouse macrophages were aliquoted in a 96-well plate at the density of 1×10^5 cells/well and stabilized in a 37° C., 5% CO2 incubator for 24 hours. The Raw 264.7 cells were treated with the compound of Example 1 by concentration. After 1 hour, the cells were treated with 1 ug/ml of LPS and cultured for 24 hours. For the measurement of NO production, 40 mg/ml of Griess reagent was prepared and it was mixed with the culture supernatant at the same ratio. The mixture was reacted at room temperature for 15 minutes, and absorbance was measured at 540 nm. Based on the results obtained therefrom, the cell viability and NO production rate were expressed as percentages in terms of LPS.

NO production = NO production in LPS-treated Raw 264.7 macrophages (Griess reagent); format: cell-based, mouse; details: 1 ug/ml LPS, 24 hours, Raw 264.7 cells; test concentration not given
Method: In order to confirm the effect of the compound of Example 1 of the present invention on NO production in Raw 264.7 mouse macrophages in which inflammatory response was induced by LPS, an experiment was performed as follows.
as §1

melanogenesis = details: Bioorganic & Medicinal Chemistry Letters 30 (2020) 127201; cited from earlier work
zebrafish [2] = assay: Whitening effect: melanin synthesis / melanocyte formation in zebrafish; format: in vivo; details: 5 μM, treated 10 hours after fertilization, read at 32 hours after fertilization; PTU 200 μM as control
Source text: When observing the regeneration of melanin pigment, after inhibiting the formation of melanin pigment, it can be investigated by limiting it to the melanocyte generation pathway, and it is easy to observe the melanin synthesized in the initial stage of development. Therefore, zebrafish is more useful for the study of melanin pigment changes compared to other animal models (Logan D W, Burn S F, Jackson I J. (2006) Regulation of pigmentation in zebrafish melanophores. Pigment Cell Res. 2006 June; 19(3):206-13.).
Particularly, zebrafish fertilized eggs 10 hours after fertilization were placed in a 24-well plate (10 eggs/well), and 1 ml of egg water was added to each well of the plate. The compound of Example 1 was added to each well at the concentrations of 0.1 μM and 1 μM, so that the final volume of each well was 2 ml. Then, each 24-well plate was wrapped in foil to block light, and then incubated in a 28° C. incubator for 22 hours. At 32 hours after fertilization, in order to photograph the formation of black melanocytes, the chorion of the developing embryo was peeled off using a forcep (Fine Science Tools). After anesthetizing the developing embryo with Tricaine (4 g/L), the embryo was photographed on 3% methyl cellulose. As the equipment for photographing the developing embryo, a LEICA MZ10F fluorescence microscope, a LEICA DFC425 camera, and Leica Application Suite software (v4.5) were used. In all the experimental procedures, egg water sterilized after dissolving 60 mg/L of sea salt (Sigma-Aldrich, S9883) in tertiary distilled water was used as a solution for culturing the developing embryo. As a control group, a solvent control group (0.4% DMSO) and phenylthiourea (200 μM PTU), known as a tyrosinase inhibitor, were used (FIG. 6A).
In the same manner, experiments were performed with the compound of Comparative Example 1 at the concentrations of 0.5 μM, 1 μM, and 5 μM, and the results are shown in FIG. 6B.
On the other hand, in order to confirm the ability of the compound of the present invention to inhibit the melanin synthesis of the already generated melanocytes, the following experiment was performed with juvenile fish 60 hours after fertilization. Particularly, juvenile fish 60 hours after fertilization were placed in a 24-well plate (10/well), and 1 ml of egg water was added to each well of the plate. The compound of Example 1 was added to each well at the concentrations of 10 μM and 20 μM, so that the final volume of each well was 2 ml. Then, each 24-well plate was wrapped in foil to block light, and then incubated in a 28° C. incubator for 12 hours. In order to photograph the formation of black melanocytes, the developing embryo was anesthetized with Tricaine (4 g/L), and then the embryo was photographed on 3% methyl cellulose. […]

artificial skin tissue = assay: Skin toxicity test on artificial skin (MTT); format: cell-based; details: 5% SDS control group
Method: In order to evaluate the skin toxicity that may be induced upon skin contact of the compound of Example 1 of the present invention, the following experiment was performed using the artificial skin prepared with a structure similar to the skin of a living body.
Particularly, the experiment was performed according to OECD Guideline for the Testing of Chemicals No. 439, OECD (2010) and the method recommended by the manufacturer (Tegoscience).
First, the artificial skin cultured in agarose medium was transferred to a 12-well cell culture plate, to which culture medium was added, followed by culture in a humidified 37° C. 5% CO2 incubator for one day. The medium on the artificial skin culture surface was eliminated, and 90 μl of the compound of Example 1 of the present invention diluted with PBS was evenly applied to the skin surface, followed by incubation at room temperature for 15 minutes. The cell surface was washed twice with 10 ml of PBS, and a fresh culture medium was added, followed by incubation in a humidified 37° C. 5% CO2 incubator for 42 hours. In order to measure the viability of the skin, the artificial skin was transferred to a 12-well plate containing 2 ml of MTT solution (0.3 mg/ml), followed by culture for 3 hours. The stained artificial skin tissue was taken and transferred to a tube containing 500 μl of 0.04 N-isopropanol, and then incubated with shaking for 4 hours to decolorize. The solution was centrifuged at 13,000 rpm for 5 minutes, 100 μl of the supernatant was transferred to each well of a 96-well plate, and absorbance was measured at 570 nm.

[3] = system: artificial corneal tissue; assay: Ocular toxicity test on artificial cornea (MTT); format: cell-based; details: 10% acetic acid control group
Method: In order to evaluate the ocular toxicity that may be induced upon ocular exposure of the compound of Example 1 of the present invention, the following experiment was performed using the cultured artificial cornea.
The artificial corneal tissue cultured in agarose medium was transferred to a 12-well cell culture plate, to which culture medium was added, followed by culture in a humidified 37° C. 5% CO2 incubator for one day. The medium on the artificial cornea culture surface was eliminated, and 30 μl of the compound of Example 1 of the present invention diluted with PBS was evenly applied to the cornea surface, followed by incubation at room temperature for 30 minutes. The cell surface was washed twice with 10 ml of PBS, and a fresh culture medium was added, followed by incubation in a humidified 37° C. 5% CO2 incubator for 30 minutes. In order to measure the viability of the cornea, the artificial cornea was transferred to a 12-well plate containing 2 ml of MTT solution (1 mg/ml), followed by culture for 3 hours. The stained artificial corneal tissue was taken and transferred to a tube containing 1.5 ml of isopropanol, and then incubated with shaking to decolorize. The solution was centrifuged at 13,000 rpm for 5 minutes, 100 μl of the supernatant was transferred to each well of a 96-well plate, and absorbance was measured at 570 nm.

zebrafish [4] = assay: Fatty liver inhibitory effect in tamoxifen-treated zebrafish juvenile fish (LipidGreen2 staining); format: in vivo; details: 5 μM tamoxifen alone, 22 hours (FIG. 8 top)
Method: In order to evaluate the inhibitory efficacy of the novel isoquinoline derivative of the present invention on fatty liver, an experiment was performed as follows using LipidGreen2 staining reagent capable of staining lipid droplets.
Particularly, the zebrafish used in this Experimental Example were juvenile fish 5 days after fertilization. Healthy juvenile fish were placed in a 24-well plate (10/well), and 1 ml of egg water was added to each well of the plate. As a negative control that could not regulate fatty liver, DMSO diluted at 0.4% was exposed to juvenile fish, and tamoxifen (Sigma-Aldrich, T5648) diluted at 5 μM was exposed to juvenile fish to control […] fatty liver. In order to investigate the fatty liver inhibitory efficacy of the compound of Example 1 of the present invention, the compound (0.5 μM, 1 μM and 5 μM) was mixed with 5 μM tamoxifen and exposed to juvenile fish (final volume of each well: 2 ml). The 24-well plate containing the compound was wrapped in foil to block light, and then incubated in a 28° C. incubator for 22 hours. The plate was washed with egg water 3 times for 5 minutes to remove the compound from each well. For fat-specific staining, LipidGreen2 diluted at 5 μM was exposed to juvenile fish for 30 minutes, and then washed 3 times with egg water for 5 minutes. To evaluate the fatty liver of zebrafish juvenile fish, the developing embryo was anesthetized with Tricaine (4 g/L), and then photographed on 3% methyl cellulose. As the equipment for photographing the developing embryo, a LEICA MZ10F fluorescence microscope, a LEICA DFC425 camera, and Leica Application Suite software (v4.5) were used. For the fluorescence wavelength, a GFP Plants filter set (Excitation 470/40 nm, Emission 525/50 nm) was used. To quantify the liver area and the degree of fat staining of juvenile fish on the image, the area and the fluorescence intensity of the liver part of each image were quantified using ImageJ 1.50i software (National Institutes of Health, USA) and converted into heatmap images.

[5] = LPS-treated Raw 264.7 cells, 24 hours, test concentration not given

Compound	NO production (% of control) (NO production)	Cell viability (% of control) [1, 5]	further results
1-((4-Fluorophenyl)Thio) Isoquinoline [Comparative Example 1, reference compound]	70 % of control		Cell viability (% of control) [1]: 95 % of control
Fc1ccc(Sc2nccc3ccccc23)cc1 [Comparative Example 1, 1-((4-Fluorophenyl)Thio) Isoquinoline, reference compound]			anti-melanogenic effect (melanogenesis): anti-melanogenic effect; synthesis of melanin (zebrafish [2]): level similar to that of the PTU-treated group
O=S(=O)(c1ccc(F)cc1)c1nccc2ccccc12 [Comparative Example 2, 1-((4-Fluorophenyl) Sulfonyl)Isoquinoline, reference compound]	65 % of control	73 % of control	
[O-][S+](c1ccc(F)cc1)c1ccnc2ccccc12 (centres unmarked) [Example 2, 4-((4-Fluorophenyl)Sulfinyl)Quinoline]	26 % of control	100 % of control	
[O-][S+](c1ccc(F)cc1F)c1nccc2ccccc12 (centres unmarked) [Example 3, 1-((2,4-Difluorophenyl)Sulfinyl)Isoquinoline]	30 % of control	103 % of control	
[O-][S+](c1ccc(Cl)cc1)c1nccc2ccccc12 (centres unmarked) [Example 4, 1-((4-Chlorophenyl)Sulfinyl)Isoquinoline]	40 % of control	96 % of control	
[O-][S+](c1ccc(C(F)(F)F)cc1)c1nccc2ccccc12 (centres unmarked) [Example 5, 1-((4-(Trifluoromethyl)Phenyl)Sulfinyl) Isoquinoline]	25 % of control	101 % of control	
CCCCCCCCCCCCOS(=O)(=O)[O-].[Na+] [SDS, reference compound]			MTT color development of artificial skin (artificial skin tissue): significant decrease of the MTT color development
CC(=O)O [acetic acid, reference compound]			MTT color development of artificial cornea [3]: significant decrease of the MTT color development
CC/C(=C(\c1ccccc1)c1ccc(OCCN(C)C)cc1)c1ccccc1 [tamoxifen, reference compound]			liver area (zebrafish [4]): maintained at the liver area level of normal juvenile fish

From patent publication US11878013B2, “Isoquinoline derivative, preparing method thereof, and pharmaceutical composition for preventing or treating autophagy related diseases containing the same as an active ingredient” (Korea Research Institute of Chemical Technology, priority 2021, dated 2024)
